What was measured:
Format in all cases: binding
[1] = target: T1, kinases (KINOMEscan panel) (Homo sapiens, UniProt Q9UKI8); conditions: kinase TLK1; NEW KINOMEscan
T1 sequence (Q9UKI8 1-766): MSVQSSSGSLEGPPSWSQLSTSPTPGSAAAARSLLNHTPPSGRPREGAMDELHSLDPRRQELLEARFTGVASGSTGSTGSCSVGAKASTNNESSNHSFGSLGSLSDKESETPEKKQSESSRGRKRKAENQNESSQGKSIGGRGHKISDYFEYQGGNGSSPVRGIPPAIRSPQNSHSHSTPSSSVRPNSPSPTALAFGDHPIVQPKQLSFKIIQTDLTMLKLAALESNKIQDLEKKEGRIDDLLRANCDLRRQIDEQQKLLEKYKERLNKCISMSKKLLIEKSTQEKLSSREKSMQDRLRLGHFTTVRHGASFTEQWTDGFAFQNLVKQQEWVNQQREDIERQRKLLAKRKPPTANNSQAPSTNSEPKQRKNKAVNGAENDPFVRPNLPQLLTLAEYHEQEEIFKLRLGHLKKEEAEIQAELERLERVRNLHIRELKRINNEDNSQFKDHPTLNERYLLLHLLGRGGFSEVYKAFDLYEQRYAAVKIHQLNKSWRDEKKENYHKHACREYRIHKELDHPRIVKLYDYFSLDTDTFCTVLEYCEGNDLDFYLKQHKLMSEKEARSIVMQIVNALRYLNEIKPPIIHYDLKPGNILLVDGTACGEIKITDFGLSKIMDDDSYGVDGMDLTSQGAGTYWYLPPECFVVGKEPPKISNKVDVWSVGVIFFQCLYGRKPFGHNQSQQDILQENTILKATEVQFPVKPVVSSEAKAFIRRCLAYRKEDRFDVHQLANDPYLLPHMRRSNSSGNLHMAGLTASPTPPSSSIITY

[2] = target: T2, kinases (KINOMEscan panel) (Homo sapiens, UniProt Q9UF33); conditions: kinase EPHA6; NEW KINOMEscan
T2 sequence (Q9UF33 23-1036): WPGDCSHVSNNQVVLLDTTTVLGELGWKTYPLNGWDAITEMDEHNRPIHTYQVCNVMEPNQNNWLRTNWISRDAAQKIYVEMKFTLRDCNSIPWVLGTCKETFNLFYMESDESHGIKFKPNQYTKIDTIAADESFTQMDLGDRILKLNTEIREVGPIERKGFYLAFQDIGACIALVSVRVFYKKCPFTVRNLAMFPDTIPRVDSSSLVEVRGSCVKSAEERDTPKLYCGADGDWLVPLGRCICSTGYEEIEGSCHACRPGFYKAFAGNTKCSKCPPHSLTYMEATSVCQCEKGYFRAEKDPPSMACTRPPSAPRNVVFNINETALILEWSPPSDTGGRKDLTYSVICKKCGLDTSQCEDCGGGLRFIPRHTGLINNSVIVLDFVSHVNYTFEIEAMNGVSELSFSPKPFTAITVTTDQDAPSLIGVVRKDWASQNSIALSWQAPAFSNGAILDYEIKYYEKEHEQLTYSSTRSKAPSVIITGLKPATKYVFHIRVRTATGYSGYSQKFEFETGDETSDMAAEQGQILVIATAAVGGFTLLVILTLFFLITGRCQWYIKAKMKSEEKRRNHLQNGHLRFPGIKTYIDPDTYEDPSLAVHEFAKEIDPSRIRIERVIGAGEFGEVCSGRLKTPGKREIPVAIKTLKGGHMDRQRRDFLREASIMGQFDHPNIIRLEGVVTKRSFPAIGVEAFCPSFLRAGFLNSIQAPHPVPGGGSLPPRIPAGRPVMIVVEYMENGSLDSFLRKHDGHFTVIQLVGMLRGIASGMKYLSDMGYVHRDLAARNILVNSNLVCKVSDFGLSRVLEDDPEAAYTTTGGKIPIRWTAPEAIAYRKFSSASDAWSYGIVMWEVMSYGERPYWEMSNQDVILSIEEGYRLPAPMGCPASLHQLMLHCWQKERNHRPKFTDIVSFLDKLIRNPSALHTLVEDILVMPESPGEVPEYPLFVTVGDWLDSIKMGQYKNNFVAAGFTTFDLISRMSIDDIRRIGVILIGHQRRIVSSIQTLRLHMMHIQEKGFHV

[3] = target: kinases (KINOMEscan panel) (Homo sapiens, UniProt O95747); conditions: NEW KINOMEscan
Chain of kinases (KINOMEscan panel) (Homo sapiens, UniProt O95747) (O95747 whole entry): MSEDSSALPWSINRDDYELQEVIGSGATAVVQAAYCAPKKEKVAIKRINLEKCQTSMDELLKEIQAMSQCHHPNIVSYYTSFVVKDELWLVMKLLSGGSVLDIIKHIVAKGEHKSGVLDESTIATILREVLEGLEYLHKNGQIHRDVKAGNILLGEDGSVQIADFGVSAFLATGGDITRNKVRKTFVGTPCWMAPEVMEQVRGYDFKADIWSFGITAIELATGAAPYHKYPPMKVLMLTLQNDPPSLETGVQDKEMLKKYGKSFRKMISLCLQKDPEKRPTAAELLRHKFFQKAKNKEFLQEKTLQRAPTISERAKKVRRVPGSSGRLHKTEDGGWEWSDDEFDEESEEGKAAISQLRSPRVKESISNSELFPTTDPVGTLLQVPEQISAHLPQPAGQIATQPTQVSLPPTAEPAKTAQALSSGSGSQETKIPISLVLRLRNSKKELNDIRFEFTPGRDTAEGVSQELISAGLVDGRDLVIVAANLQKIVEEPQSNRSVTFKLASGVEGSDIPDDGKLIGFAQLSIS

[4] = target: T3, kinases (KINOMEscan panel) (Homo sapiens, UniProt P29323); conditions: EPHB2; NEW KINOMEscan
T3 sequence (P29323 19-1055): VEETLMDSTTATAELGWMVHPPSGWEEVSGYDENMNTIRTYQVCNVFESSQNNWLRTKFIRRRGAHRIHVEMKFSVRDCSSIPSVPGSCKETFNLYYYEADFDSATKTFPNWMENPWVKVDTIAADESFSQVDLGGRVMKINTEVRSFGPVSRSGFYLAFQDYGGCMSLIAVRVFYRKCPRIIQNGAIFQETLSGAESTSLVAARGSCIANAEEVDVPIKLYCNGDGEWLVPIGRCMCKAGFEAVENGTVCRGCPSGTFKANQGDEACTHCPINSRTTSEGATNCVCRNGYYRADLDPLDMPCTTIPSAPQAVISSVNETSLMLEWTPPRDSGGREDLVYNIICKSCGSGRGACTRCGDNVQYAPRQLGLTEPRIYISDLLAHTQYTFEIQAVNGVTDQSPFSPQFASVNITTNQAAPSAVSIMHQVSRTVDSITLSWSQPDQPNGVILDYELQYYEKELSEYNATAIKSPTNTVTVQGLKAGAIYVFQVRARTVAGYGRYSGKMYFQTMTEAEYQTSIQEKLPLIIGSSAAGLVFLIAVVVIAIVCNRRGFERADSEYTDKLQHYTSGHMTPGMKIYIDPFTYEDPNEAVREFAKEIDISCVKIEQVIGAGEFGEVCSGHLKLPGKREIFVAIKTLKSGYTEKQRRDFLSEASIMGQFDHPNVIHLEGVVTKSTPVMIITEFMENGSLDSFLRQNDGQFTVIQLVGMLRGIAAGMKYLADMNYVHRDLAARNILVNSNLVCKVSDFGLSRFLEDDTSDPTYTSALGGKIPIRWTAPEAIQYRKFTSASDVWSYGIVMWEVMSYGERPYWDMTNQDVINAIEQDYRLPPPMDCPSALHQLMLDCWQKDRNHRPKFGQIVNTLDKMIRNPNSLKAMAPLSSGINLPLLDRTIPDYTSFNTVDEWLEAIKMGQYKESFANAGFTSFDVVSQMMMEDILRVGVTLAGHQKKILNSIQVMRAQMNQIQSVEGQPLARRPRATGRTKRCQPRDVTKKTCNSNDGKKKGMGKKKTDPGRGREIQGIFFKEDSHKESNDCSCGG

Row | Compound | KINOMEscan TLK1 [1] | KINOMEscan EPHA6 [2] | KINOMEscan OSXR1 [3] | KINOMEscan EPHB2 [4]
1 | Cc1cccc(-c2nc(Nc3ccc4nn(C)cc4c3)c3ccccc3n2)n1 [NK167] | 0 | 0 | 11 | 12
2 | Cc1cccc(-c2nc(N(C)c3ccc4ncsc4c3)c3ccccc3n2)n1 [NK-161] | 0 | 5 | 25 | 15

Source: PMC9851200, “Multiparameter phenotypic screening for endogenous TFEB and TFE3 translocation identifies novel chemical series modulating lysosome function” (Autophagy, 2022)
